Measurements as given in ChEMBL document CHEMBL1201862, “PubChem BioAssay data set” (2004).
The source made the active and inactive calls. Rule as the data show it, for most assays here: actives have a measured EC50 and inactives only a lower limit.

How the values were obtained:
[1] = biological target: T1, Heat shock factor protein 1 (Mus musculus, UniProt P38532); assay: decrease of HSF1-responsive luciferase luminescence – cell-based, NIH3T3, dose retest, confirmation (AID 2382); format: functional;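 also: NIH3T3 fibroblasts with HSF1-driven luciferase reporter stressed by proteasome inhibitor MG132; luminescence from HSF1-driven luciferase expression after 8 hours of MG132 stress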
T1 sequence (P38532 whole entry): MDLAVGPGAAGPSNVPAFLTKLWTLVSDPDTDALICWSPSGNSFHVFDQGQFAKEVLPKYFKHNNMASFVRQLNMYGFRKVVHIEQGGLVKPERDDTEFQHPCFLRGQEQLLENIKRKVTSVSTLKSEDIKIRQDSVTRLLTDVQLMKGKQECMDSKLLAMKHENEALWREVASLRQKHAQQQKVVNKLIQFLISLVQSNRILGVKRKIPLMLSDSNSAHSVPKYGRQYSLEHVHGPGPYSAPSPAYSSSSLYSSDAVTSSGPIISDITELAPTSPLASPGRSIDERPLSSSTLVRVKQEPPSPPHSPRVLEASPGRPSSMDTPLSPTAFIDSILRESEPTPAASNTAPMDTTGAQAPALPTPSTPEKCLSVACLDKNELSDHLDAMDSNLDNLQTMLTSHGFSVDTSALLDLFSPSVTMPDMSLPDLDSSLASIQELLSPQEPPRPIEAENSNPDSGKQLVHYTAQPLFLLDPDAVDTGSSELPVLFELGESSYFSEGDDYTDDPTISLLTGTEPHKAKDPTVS

[2] = Luminescence Cell-Based Dose Response HTS to Identify Activators of Luciferase Translation or Activity in H4 […] Cells. [Related pubchem assays: 1829 (Project Summary), 1814 (Primary HTS)]; format: functional
H9c2 = assay: cells; format: functional, cell-based; settings: Rattus norvegicus, H9c2, Myocardium;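 also: confirmatory concentration-response retest of ultra-high-throughput screening hits for modulation of myocardial damage; cell death induced by hydrogen peroxide oxidative stress; compound pretreatment for 60 min then peroxide exposure for 2 h; potency is for protecting the cells against peroxide damage rather than for killing them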
[3] = luciferase reporter signal suppression in cells – H4 neuroglioma cells, luminescence, dose response (AID 1990); format: functional, cell-based
[4] = alpha-synuclein stem-loop luciferase translation blockers – H4 neuroglioma cells, luminescence, confirmation (AID 1988); format: functional, cell-based
[5] = Luminescence Cell-Based Dose Response HTS to Identify Inhibitors of 5'UTR Stem-Loop Driven Prion Protein mRNA Translation in H4 Neuroglioblastoma Cells. [Related pubchem assays: 1827 (Project Summary), 1813 (Primary HTS)]; format: functional
[6] = biological target: T1, Heat shock factor protein 1; assay: enhancement of HSF1-driven luciferase signal – cell-based, NIH3T3, luminescence, dose retest, confirmation (AID 435004); format: functional;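 also: stress induced by proteasome inhibitor MG132 added 30 min after compound; luciferase reporter driven by HSF1 response element in NIH3T3 cells; actives raise luminescence as potentiators of the MG132 stress response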
[7] = Trypanosoma cruzi growth suppression in host cells – NIH3T3 host cells, beta-gal luminescence, confirmation (AID 2044); format: functional, cell-based;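 also: intracellular parasites grown in NIH/3T3 mouse fibroblasts as host cells; luminescent beta-galactosidase reporter signal from transgenic T. cruzi replicating inside host cells; inhibitors lower the luminescence signal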
[8] = NIH3T3 cell viability loss – ATP luminescence, mouse fibroblasts, counter-screen, dose response (AID 2010); format: functional, cell-based;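 also: cells exposed to compound for about 90 hours before reading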
Cytochrome P450 3A4 = Cytochrome P450 3A4 (Homo sapiens, UniProt P08684);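 also: CYP3A4 tested as one member of a cytochrome P450 panel screen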
Paired box protein Pax-8 = Paired box protein Pax-8 (Homo sapiens, UniProt Q06710); assay: PAX8 transcriptional activity inhibition in RMG-I – RMG-I cells, luciferase, cherry-pick, dose response (AID 687027); format: functional, cell-based;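 also: luciferase reporter driven by Pax8 target thyroperoxidase promoter measured by SteadyGlo luminescence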
INS1 = assay: INS-1E survival protection against cytokine death – cell-based, luminescence, retest, dose response (AID 449756); format: functional; settings: Rattus norvegicus;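 also: cell death triggered by IL-1 beta plus TNF-alpha plus IFN-gamma mixture; protective hits raise ATP signal compared with cytokine alone wells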
[9] = Luminescence Cell-Based Dose Retest to Confirm Inhibitors of Cancer Stem Cells. [Related pubchem assays (depositor defined):AID2717, AID2721]; format: functional, Homo sapiens; settings: Homo sapiens
[10] = system: Streptococcus sp. 'group A'; assay: Streptococcus pyogenes SK(-)GAS viability under kanamycin – luminescence, BacTiterGlo, confirmation, counter-screen for streptokinase expression inhibitor project, dose response (AID 1900); format: functional, organism-based
Streptococcus = assay: GAS UMAA2166 growth inhibition – luminescence, BacTiterGlo, counter-screen for streptokinase expression inhibitor project, dose response (AID 1915); format: functional, organism-based;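 also: potency for reduction of bacterial viability or growth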

Paired box protein Pax-8, sequence (Q06710 whole entry): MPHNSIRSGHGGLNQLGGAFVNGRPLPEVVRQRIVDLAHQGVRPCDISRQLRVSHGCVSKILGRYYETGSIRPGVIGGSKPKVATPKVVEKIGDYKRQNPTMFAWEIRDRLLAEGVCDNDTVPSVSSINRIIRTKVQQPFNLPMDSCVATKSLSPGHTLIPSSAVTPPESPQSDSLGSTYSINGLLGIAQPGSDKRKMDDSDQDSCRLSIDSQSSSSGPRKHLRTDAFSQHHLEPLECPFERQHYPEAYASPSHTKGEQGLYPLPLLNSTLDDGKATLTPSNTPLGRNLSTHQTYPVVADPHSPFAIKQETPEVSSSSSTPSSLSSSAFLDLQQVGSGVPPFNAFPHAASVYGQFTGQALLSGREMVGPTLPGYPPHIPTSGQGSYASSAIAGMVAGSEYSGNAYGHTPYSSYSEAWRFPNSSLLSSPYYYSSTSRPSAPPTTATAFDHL
Cytochrome P450 3A4, sequence (P08684 whole entry): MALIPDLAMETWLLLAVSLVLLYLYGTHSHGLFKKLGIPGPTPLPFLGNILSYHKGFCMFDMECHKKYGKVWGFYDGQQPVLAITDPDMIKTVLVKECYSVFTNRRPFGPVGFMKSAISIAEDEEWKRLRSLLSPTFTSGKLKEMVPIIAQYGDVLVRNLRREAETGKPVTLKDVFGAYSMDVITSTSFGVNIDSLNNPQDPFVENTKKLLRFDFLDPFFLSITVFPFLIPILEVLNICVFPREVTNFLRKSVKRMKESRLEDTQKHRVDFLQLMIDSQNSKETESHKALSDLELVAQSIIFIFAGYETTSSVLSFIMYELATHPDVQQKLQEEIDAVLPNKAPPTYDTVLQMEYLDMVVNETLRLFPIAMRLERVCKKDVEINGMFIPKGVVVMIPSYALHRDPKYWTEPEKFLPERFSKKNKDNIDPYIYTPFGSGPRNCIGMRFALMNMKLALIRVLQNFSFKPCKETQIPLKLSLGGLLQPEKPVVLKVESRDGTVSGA

O=C(COC(=O)c1cccs1)c1ccc2c(c1)OCCO2
EC50 [1]: 0.213 µM (active) | EC50 [2]: < 0.1 µM (active)

COc1ccc(OCC(O)Cn2c(Nc3cccc(C)c3)nc3c2c(=O)n(C)c(=O)n3C)cc1 (stereo unspecified)
IC50 (H9c2): 10.1 µM (active)

Cc1ccc(NC(=O)CN(C)C(S)=NC2CC2)cc1
EC50 [3]: > 120 µM (not active) | EC50 [4]: > 120 µM (not active) | EC50 [5]: > 120 µM (not active)

O=C(COC(=O)CCc1nc(O)c2ccccc2n1)NC(c1ccccc1)c1ccccc1
IC50 (H9c2): > 79 µM (inactive)

CCOc1ccc(S(=O)(=O)c2c(C(=O)c3ccccc3)cnc3cc4c(cc23)OCCO4)cc1
EC50 [6]: > 260 µM (inactive) | EC50 [7]: 2.43 µM (active) | EC50 [8]: 17.8 µM (active)

NS(=O)(=O)c1ccc(NC(=O)CN2C(=O)CCC2=O)cc1
EC50 [6]: > 260 µM (inactive)

O=C(Cn1[nH]c(=O)c2ccccc2c1=O)N1CC=C(c2ccccc2)CC1
IC50 (H9c2): > 79 µM (inactive)

Cc1ccc(C)c(OCCn2cc(/C=C(\C#N)C(=O)NCc3ccco3)c3ccccc32)c1
EC50 [3]: > 120 µM (not active) | EC50 [4]: 25.1 µM (active) | EC50 [5]: 17.1 µM (active)

O=C(Nc1cnn(Cc2ccc(F)cc2)c1)c1cc(-c2ccco2)on1
EC50 [1]: > 195 µM (not active)

COc1ccc2c(c1)-c1c(sn(-c3ccccc3)c1=S)C(C)(C)N2
EC50 [6]: > 260 µM (inactive)

Cc1ccc(NC(=O)c2[nH]cnc2C(=O)NCCCCCCNC(=O)c2nc[nH]c2C(=O)Nc2ccc(C)cc2)cc1
IC50 (H9c2): > 79 µM (inactive)

O=C(CN1CCN(c2ccccn2)CC1)Nc1ccc([N+](=O)[O-])cc1C(=O)Nc1ccccc1F
IC50 (H9c2): > 79 µM (inactive)

CS(=O)(=O)c1nc(-c2ccccc2)cc(-c2ccccc2)c1C#N
AC50 (Cytochrome P450 3A4): 22.4 µM (inconclusive) | EC50 [6]: 16.7 µM (active)

N#C/C(=C/c1ccc(Br)o1)C(N)=O
EC50 [1]: > 195 µM (not active)

CCc1ccccc1N(CC(=O)NCc1ccco1)C(=O)CCC(=O)Nc1ccccn1
EC50 [1]: 35.8 µM (active)

O=C(NCCN1CCN(C(=O)c2ccc(Br)cc2)CC1)c1ccc(Br)cc1
EC50 [6]: > 260 µM (inactive)

COc1cc2c3c(c1OC)C1(C=CC(=NO)C=C1)CC3N(C(C)=O)CC2 (stereo unspecified)
EC50 [3]: > 120 µM (not active) | EC50 [4]: > 120 µM (not active) | EC50 [5]: > 120 µM (not active)

COc1ccc(-c2cc(C(F)(F)F)n3nc(C(=O)N4CCN(C(=O)c5ccco5)CC4)cc3n2)cc1
IC50 (H9c2): 13 µM (active)

O=C(c1ccco1)N1N=C(c2ccc(Br)cc2)CC1(O)C(F)(F)F (stereo unspecified)
AC50 (Paired box protein Pax-8): 27.1 µM (active)

CCCCNC(=O)c1ccc(Cn2c(=S)[nH]c3c([nH]c4ccc(OC)cc43)c2=O)cc1
AC50 (INS1): 5.01 µM (active) | EC50 [1]: 3.02 µM (active) | AC50 [9]: 0.687 µM (active)

CC1CCN(C(c2ccc(N(C)C)cc2)c2nnnn2Cc2ccccc2)CC1 (stereo unspecified)
EC50 [6]: > 260 µM (inactive)

CC(=O)c1ccc(OCC(O)CN2CCN(Cc3ccc4c(c3)OCO4)CC2)cc1 (stereo unspecified)
EC50 [1]: > 195 µM (not active)

COc1ccc(Nc2nc(C(=O)N3CCc4cc(OC)c(OC)cc4C3)cs2)cc1
IC50 (H9c2): > 79 µM (inactive)

CC(C)(C)OC(=O)C[C@@H]1C/C=C\C[C@@H](CC(=O)N[C@@H](CO)Cc2ccccc2)C(=O)NC[C@@H](c2ccccc2)OC1=O
IC50 (H9c2): 11.1 µM (active)

CSCCC(c1nnnn1-c1ccc2c(c1)OCCO2)N1CCC(n2c(O)nc3ccccc32)CC1 (stereo unspecified)
AC50 (Paired box protein Pax-8): 2.14 µM (active)

CC(C)OCCCNC(=O)c1cccc(NC(=O)c2ccccc2)c1
AC50 (Paired box protein Pax-8): 41.6 µM (active)

c1ccc(N2CCOCC2)c(Nc2nc3ccccc3n3cnnc23)c1
IC50 (H9c2): > 79 µM (inactive)

CN(CC(=O)Nc1cccc(F)c1)C(=O)CCc1nc(O)c2ccccc2n1
IC50 (H9c2): > 79 µM (inactive)

Cc1ccc(OCC(=O)Nc2nc(-c3ccccn3)cs2)c(C)c1
EC50 [10]: 1.08 µM (active) | EC50 (Streptococcus): 4.62 µM (active) | IC50 (H9c2): > 79 µM (inactive)

CC(C)(C)OC(=O)C[C@H]1C/C=C\C[C@H](CC(=O)N[C@H](CO)Cc2ccccc2)C(=O)N[C@H](Cc2ccccc2)COC1=O
IC50 (H9c2): > 79 µM (inactive)

CCOc1ccc(S(=O)(=O)NN=C(S)Nc2ccc(Br)cc2)cc1
EC50 [6]: > 260 µM (inactive)

O=C(O)C1CCCCC1C(=O)Nc1cccc(C(=O)N2CCCCC2)c1 (stereo unspecified)
EC50 [1]: > 195 µM (not active)

Cn1c(C[S+]([O-])Cc2c(Cl)cccc2Cl)nnc1SCc1ccc(Cl)cc1 (stereo unspecified)
EC50 [3]: > 120 µM (not active) | EC50 [4]: 13.8 µM (active) | EC50 [5]: > 120 µM (not active)

CC(=O)NCc1ccc(-c2csc(NC(=O)CCc3nc(O)c4ccccc4n3)n2)s1
IC50 (H9c2): > 79 µM (inactive)

COc1ccc(/C=N/NC(=O)c2ccncc2)cc1COc1ccc(NC(C)=O)cc1
EC50 [3]: > 120 µM (not active) | EC50 [4]: > 120 µM (not active) | EC50 [5]: > 120 µM (not active)

CC(C)NC(=O)CN(C(=O)CCC(=O)Nc1nccs1)c1ccc2c(c1)OCO2
EC50 [6]: > 260 µM (inactive)

COc1cccc(CC2(CO)CCN(S(=O)(=O)c3ccc(OC)cc3OC)CC2)c1
EC50 [1]: > 195 µM (not active)

COC(=O)c1ccccc1NC(=O)/C=C/c1cc(OC)c(OC)c(OC)c1
IC50 (H9c2): 10.5 µM (active)

Cc1cccc(-[n+]2c(C)cc(C)c3c(=O)[nH]c(=O)[nH]c32)c1
EC50 [6]: > 260 µM (inactive)

Cc1ccccc1NC(S)=NNC(=O)c1csc2c1CCC(C)C2 (stereo unspecified)
EC50 [1]: < 0.16 µM (active)

CC(C)(C)c1ccc(/C=N/N2C(=O)CSC2=S)cc1
EC50 [1]: 44.1 µM (active)

C[C@@H]1CCCCO[C@H](CN(C)CC2CCCCC2)[C@H](C)CN([C@H](C)CO)C(=O)c2cc(NS(=O)(=O)c3ccc(Cl)cc3)ccc2O1
AC50 (Paired box protein Pax-8): 5.21 µM (active)

O=C(Nc1ccc2c(c1)nc(O)c1ccccc12)C(F)(F)F
IC50 (H9c2): > 79 µM (inactive)

CCN(CC)C(=O)c1[nH]cnc1C(=O)NCC(=O)OCc1ccccc1
IC50 (H9c2): 6.99 µM (active)

COc1cc2c(cc1OC)CN(C(=O)CNS(=O)(=O)c1ccc(C)c(C)c1)CC2
EC50 [3]: > 120 µM (not active) | EC50 [4]: > 120 µM (not active) | EC50 [5]: > 120 µM (not active)

C/C(CCc1oc2c(Br)cc(Br)cc2c1-c1ccc(C)o1)=N\O
EC50 [6]: > 260 µM (inactive)

CC1CN(C(=O)C(C)N2C(=O)c3ccccc3C2=O)CC(C)O1 (stereo unspecified)
EC50 [1]: 33.4 µM (active)

Cc1cccc(OCC(=O)Nc2ccc3c(c2)nc(CCN2CCCCC2)n3C)c1
EC50 [6]: > 260 µM (inactive)

CCOc1ccc(S(=O)(=O)N2CCC(C(=O)N3CCOCC3)CC2)cc1C
EC50 [3]: 16.4 µM (active) | EC50 [4]: > 120 µM (not active) | EC50 [5]: > 120 µM (not active)
